Results reported in patent US12660819B2, “Herbicidal derivatives” (SYNGENTA CROP PROTECTION AG, priority 2020, dated 2026).

Legend:
Type in all cases: in vivo
[1] = system: Amaranthus retoflexus (AMARE); assay: Pre-emergence Test (glasshouse, percentage damage to the plant); conditions: 1000 g/ha unless otherwise stated, five-point scale
[2] = system: Ipomoea hederacea (IPOHE); assay: as above; conditions: 1000 g/ha unless otherwise stated, five-point scale
Lolium perenne (LOLPE) [3] = assay: as above; conditions: 1000 g/ha unless otherwise stated, five-point scale
Lolium perenne (LOLPE) [4] = assay: Post-emergence Test (glasshouse, percentage damage to the plant); conditions: post-emergence spray, 1000 g/ha unless otherwise stated, evaluated after 13 days
Procedure, shortened: (§1)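 Seeds are sown in standard soil under controlled glasshouse conditions. The pots are then sprayed at 1000 g/ha, unless otherwise stated, with compound in acetone/water (50:50) containing 0.5% Tween 20. After 13 days further growth, percentage plant damage is scored from 1 (0-20%) to 5 (81-100%).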

Setaria faberi (SETFA) [5] = assay: as above; conditions: post-emergence spray, 1000 g/ha unless otherwise stated, evaluated after 13 days
Procedure, shortened: (§2)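 Spray treatment of sown glasshouse pots at 1000 g/ha (default rate), vehicle acetone/water 50:50 plus 0.5% Tween 20. Read-out: percentage damage after 13 days, converted to a score where 5 denotes 81-100% and 1 denotes 0-20%.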

[6] = system: Ipomoea hederacea (IPOHE); assay: as above; conditions: post-emergence spray, 1000 g/ha unless otherwise stated, evaluated after 13 days
Procedure, shortened: as §2

Solanum nigrum (SOLNI) [7] = assay: as above; conditions: post-emergence spray, 1000 g/ha unless otherwise stated, evaluated after 13 days
Procedure, shortened: as §1

[8] = system: Echinochloa crus-galli (ECHCG); assay: as above; conditions: post-emergence spray, 1000 g/ha unless otherwise stated, evaluated after 13 days
Procedure, shortened: as §1

[9] = system: Amaranthus retoflexus (AMARE); assay: as above; conditions: post-emergence spray, 1000 g/ha unless otherwise stated, evaluated after 13 days
Procedure, shortened: as §1

Setaria faberi (SETFA) [10] = assay: Pre-emergence Test (glasshouse, percentage damage to the plant); conditions: 1000 g/ha unless otherwise stated, five-point scale
[11] = system: Echinochloa crus-galli (ECHCG); assay: as above; conditions: 1000 g/ha unless otherwise stated, five-point scale
Solanum nigrum (SOLNI) [12] = assay: as above; conditions: 1000 g/ha unless otherwise stated, five-point scale

SMILES | percentage damage to the plant, AMARE [1] | percentage damage to the plant, IPOHE [2] | percentage damage to the plant, LOLPE (Lolium perenne (LOLPE) [3]) | Post-emergence Test LOLPE, percentage damage to the plant (five-point scale) (Lolium perenne (LOLPE) [4]) | Post-emergence Test SETFA, percentage damage to the plant (five-point scale) (Setaria faberi (SETFA) [5]) | Post-emergence Test IPOHE, percentage damage to the plant (five-point scale) [6] | Post-emergence Test SOLNI, percentage damage to the plant (five-point scale) (Solanum nigrum (SOLNI) [7]) | Post-emergence Test ECHCG, percentage damage to the plant (five-point scale) [8] | Post-emergence Test AMARE, percentage damage to the plant (five-point scale) [9] | percentage damage to the plant, SETFA (Setaria faberi (SETFA) [10]) | percentage damage to the plant, ECHCG [11] | percentage damage to the plant, SOLNI (Solanum nigrum (SOLNI) [12])
CCn1c(C)c(-c2ccc(C(F)(F)F)cc2)c(=O)c(C(=O)O)c1-c1ccc(Cl)c(Cl)c1 [Compound 26, 2-(3,4-dichlorophenyl)-1-ethyl-6-methyl-4-oxo-5-[4-(trifluoromethyl)phenyl]pyridine-3-carboxylic acid] | 1 (1=0-20%) | 1 (1=0-20%) | 1 (1=0-20%) | 1 (1=0-20%) | 5 (5=81-100%) | 4 (4=61-80%) | 2 (2=21-40%) | 4 (4=61-80%) | 5 (5=81-100%) | 1 (1=0-20%) | 1 (1=0-20%) | 1 (1=0-20%)
CCn1c(C)c(-c2ncco2)c(=O)c(C(=O)O)c1-c1ccc(Cl)c(Cl)c1 [Compound 27, 2-(3,4-dichlorophenyl)-1-ethyl-6-methyl-5-oxazol-2-yl-4-oxo-pyridine-3-carboxylic acid] | 1 (1=0-20%) | 1 (1=0-20%) | 1 (1=0-20%) | 1 (1=0-20%) | 3 (3=41-60%) | 2 (2=21-40%) | 3 (3=41-60%) | 3 (3=41-60%) | 3 (3=41-60%) | 1 (1=0-20%) | 1 (1=0-20%) | 1 (1=0-20%)
CCn1c(C)c(-c2ccccn2)c(=O)c(C(=O)O)c1-c1ccc(Cl)c(Cl)c1.Cl [Compound 28, 2-(3,4-dichlorophenyl)-1-ethyl-6-methyl-4-oxo-5-pyridin-1-ium-2-yl-pyridine-3-carboxylic acid;chloride] | 1 (1=0-20%) | 3 (3=41-60%) | 1 (1=0-20%) | 2 (2=21-40%) | 3 (3=41-60%) | 4 (4=61-80%) | 3 (3=41-60%) | 2 (2=21-40%) | 2 (2=21-40%) | 1 (1=0-20%) | 1 (1=0-20%) | 2 (2=21-40%)
CCn1c(C)c(-c2ccc(Cl)c(Cl)c2)c(=O)c(C(=O)O)c1-c1ccc(Cl)c(Cl)c1 [Compound 29, 2,5-bis(3,4-dichlorophenyl)-1-ethyl-6-methyl-4-oxo-pyridine-3-carboxylic acid] | 3 (3=41-60%) | 1 (1=0-20%) | 1 (1=0-20%) | 2 (2=21-40%) | 3 (3=41-60%) | 2 (2=21-40%) | 3 (3=41-60%) | 1 (1=0-20%) | 5 (5=81-100%) | 3 (3=41-60%) | 1 (1=0-20%) | 1 (1=0-20%)
CCn1c(C)c(-c2ccsc2)c(=O)c(C(=O)O)c1-c1ccc(Cl)c(Cl)c1 [Compound 30, 2-(3,4-dichlorophenyl)-1-ethyl-6-methyl-4-oxo-5-(3-thienyl)pyridine-3-carboxylic acid] | 1 (1=0-20%) | 2 (2=21-40%) | 2 (2=21-40%) | 2 (2=21-40%) | 3 (3=41-60%) | 3 (3=41-60%) | 3 (3=41-60%) | 2 (2=21-40%) | 4 (4=61-80%) | 4 (4=61-80%) | 3 (3=41-60%) | 2 (2=21-40%)
CCn1c(C)c(-c2ccccc2C)c(=O)c(C(=O)O)c1-c1ccc(Cl)c(Cl)c1 [Compound 31, 2-(3,4-dichlorophenyl)-1-ethyl-6-methyl-5-(o-tolyl)-4-oxo-pyridine-3-carboxylic acid] | 1 (1=0-20%) | 1 (1=0-20%) | 1 (1=0-20%) | 2 (2=21-40%) | 3 (3=41-60%) | 2 (2=21-40%) | 4 (4=61-80%) | 1 (1=0-20%) | 3 (3=41-60%) | 4 (4=61-80%) | 1 (1=0-20%) | 4 (4=61-80%)
